In patent US11028061B2, “Modulators of myocyte lipid accumulation and insulin resistance and methods of use thereof” (Sanford Burnham Prebys Medical Discovery Institute, priority 2015, dated 2021):

system: primary murine skeletal myocytes; assay: TAG accumulation in primary murine skeletal myocytes; type: cell-based; conditions: Mus musculus, read-out: Activity Score (IC50), triacylglyceride (TAG) accumulation

SMILES	IC50 [µM]
CCNc1ccc(C(=O)Nc2nc(-c3ccc(OC)cc3)cs2)cc1OCCO [Cpd. 99, 4-(ethylamino)-3-(2-hydroxyethoxy)-N-(4-(4-methoxyphenyl)thiazol-2-yl)benzamide]	1 to 10

same assay, conditions: Mus musculus; primary murine skeletal myocytes; read-out: Activity Score (IC50), triacylglyceride (TAG) accumulation

SMILES	IC50 [µM]
COCCNC(=O)CNc1ccc(C(=O)Nc2nc(-c3ccc(OC)cc3Cl)cs2)cc1 [compound 73, N-(4-(2-chloro-4-methoxyphenyl)thiazol-2-yl)-4-((2-((2-methoxyethyl)amino)-2-oxoethyl)amino)benzamide]	< 1
COc1cc(C(=O)Nc2ncc(-c3ccccc3)s2)ccc1OCC(=O)N1CCOCC1 [compound 79, 3-methoxy-4-(2-morpholino-2-oxoethoxy)-N-(5-phenylthiazol-2-yl)benzamide]	> 10
COc1cc(C(=O)Nc2nc(-c3ccc(Cl)c(Cl)c3)cs2)ccc1O [Cpd. 5, N-(4-(3,4-dichlorophenyl)thiazol-2-yl)-4-hydroxy-3-methoxybenzamide]	1 to 10
COc1ccc(-c2csc(NC(=O)c3ccc(NCC(=O)N4CCOCC4)c(OC)c3)n2)cc1 [Cpd. 75, 3-methoxy-N-(4-(4-methoxyphenyl)thiazol-2-yl)-4-((2-morpholino-2-oxoethyl)amino)benzamide]	< 1
COc1ccc(-c2csc(NC(=O)C3CCC(OCC(=O)N4CCOCC4)CC3)n2)cc1 (stereo not shown) [Cpd. 97, N-(4-(4-methoxyphenyl)thiazol-2-yl)-4-(2-morpholino-2-oxoethoxy)cyclohexane-1-carboxamide]	> 10
O=C(Nc1nc(-c2ccc(F)cc2)cs1)c1ccc(OCC(=O)N2CCOCC2)cc1 [Cpd. 46, N-(4-(4-fluorophenyl)thiazol-2-yl)-4-(2-morpholino-2-oxoethoxy)benzamide]	< 1
COc1cc(C(=O)Nc2nc(Cc3ccccc3)cs2)ccc1OCC(=O)N1CCOCC1 [Cpd. 85, N-(4-benzylthiazol-2-yl)-3-methoxy-4-(2-morpholino-2-oxoethoxy)benzamide]	1 to 10
O=C(Nc1nc(-c2ccccc2Cl)cs1)c1ccc(OCC(=O)N2CCOCC2)cc1 [Cpd. 48, N-(4-(2-chlorophenyl)thiazol-2-yl)-4-(2-morpholino-2-oxoethoxy)benzamide]	< 1
COCCOc1ccc(-c2csc(NC(=O)c3ccc(OCC(=O)N4CCOCC4)cc3)n2)cc1 [Cpd. 43, N-(4-(4-(2-methoxyethoxy)phenyl)thiazol-2-yl)-4-(2-morpholino-2-oxoethoxy)benzamide]	< 1
COc1ccc(-c2csc(NC(=O)c3ccc(OCC(=O)N4CCOCC4)c(OC)c3)n2)cc1OC [Cpd. 38, N-(4-(3,4-dimethoxyphenyl)thiazol-2-yl)-3-methoxy-4-(2-morpholino-2-oxoethoxy)benzamide]	1 to 10
COc1ccc(-c2csc(NC(=O)c3ccc(NCC(=O)N4CCOCC4)cc3)n2)c(Cl)c1 [compound 70, N-(4-(2-chloro-4-methoxyphenyl)thiazol-2-yl)-4-((2-morpholino-2-oxoethyl)amino)benzamide]	< 1
COc1cc(C(=O)Nc2ncc(Cc3cccc(C(F)(F)F)c3)s2)ccc1OCC(=O)N1CCOCC1 [Cpd. 100, 3-methoxy-4-(2-morpholino-2-oxoethoxy)-N-(5-(3-(trifluoromethyl)benzyl)thiazol-2-yl)benzamide]	> 10
COc1ccc(-c2csc(NC(=O)CCC(=O)N3CCOc4ccccc43)n2)cc1 [Cpd. 81, 4-(2,3-dihydro-4H-benzo[b][1,4]oxazin-4-yl)-N-(4-(4-methoxyphenyl)thiazol-2-yl)-4-oxobutanamide]	< 1
COc1ccc(-c2csc(NC(=O)c3ccc(NCC(=O)N(C)C)cc3)n2)c(Cl)c1 [compound 72, N-(4-(2-chloro-4-methoxyphenyl)thiazol-2-yl)-4-((2-(dimethylamino)-2-oxoethyl)amino)benzamide]	< 1
COc1cc(C(=O)Nc2nc(-c3ccc([N+](=O)[O-])cc3)cs2)ccc1OCC(=O)N1CCOCC1 [Cpd. 33, 3-methoxy-4-(2-morpholino-2-oxoethoxy)-N-(4-(4-nitrophenyl)thiazol-2-yl)benzamide]	< 1
